Reference: publication PMC8662641, “Site-Specific Labeling of Endogenous Proteins Using CoLDR Chemistry” (Journal of the American Chemical Society, 2021)
Read-outs that look alike come from different tables or passages of the source. Each block holds one compound with its values, some of them ahead of it.

Key:
GSH reactivity assay = assay type: physicochemical; conditions: for half-life at 100 μM: 5 mM GSH in potassium phosphate buffer/DMF, pH 8, read-out: GSH t1/2
Description: A 100 μM (0.5 μL of a 20 mM stock) sample of the electrophile (1a–1m) was incubated with 5 mM GSH (5 μL of a 100 mM stock, freshly dissolved), 5 mM NaOH (to counter the acidity imparted by GSH), and 100 μM 4-nitrocyanobenzene (0.5 μL of a 20 mM stock solution) as an internal standard in 100 mM potassium phosphate buffer pH 8.0 and DMF at a ratio of 9:1, respectively. All solvents were bubbled with argon. Reaction mixtures were kept at 14 °C. Every 1 h 5 μL from the reaction mixture was injected into the LC/MS. The reaction was followed by the peak area of the electrophile normalized by the area of the 4-nitrocyanobenzene (i.e., by the disappearance of the starting material). The natural logarithm of the results was fitted to linear regression, and t1/2 was calculated as t1/2 = ln 2/–slope.

Buffer stability assay = assay type: physicochemical
Description: A sample of 100 μM of the electrophile (1a–1p) was incubated with 100 μM 4-nitrocyanobenzene as an internal standard in a 100 mM potassium phosphate buffer of pH 8.0. All solvents were bubbled with argon. Reaction mixtures were kept at 37 °C with shaking. After 4 days (unless otherwise mentioned), 5 μL from the reaction mixture was injected into the LC/MS to check the stability of the compounds.

BTK [1] = molecular target: T1, BTK (Homo sapiens, UniProt Q06187); experiment: In-gel fluorescence labeling profile in Mino cells; conditions: for labeling of BTK in live Mino cells: 2 h incubation, in-gel fluorescence
Target sequence in this assay (Q06187 whole entry): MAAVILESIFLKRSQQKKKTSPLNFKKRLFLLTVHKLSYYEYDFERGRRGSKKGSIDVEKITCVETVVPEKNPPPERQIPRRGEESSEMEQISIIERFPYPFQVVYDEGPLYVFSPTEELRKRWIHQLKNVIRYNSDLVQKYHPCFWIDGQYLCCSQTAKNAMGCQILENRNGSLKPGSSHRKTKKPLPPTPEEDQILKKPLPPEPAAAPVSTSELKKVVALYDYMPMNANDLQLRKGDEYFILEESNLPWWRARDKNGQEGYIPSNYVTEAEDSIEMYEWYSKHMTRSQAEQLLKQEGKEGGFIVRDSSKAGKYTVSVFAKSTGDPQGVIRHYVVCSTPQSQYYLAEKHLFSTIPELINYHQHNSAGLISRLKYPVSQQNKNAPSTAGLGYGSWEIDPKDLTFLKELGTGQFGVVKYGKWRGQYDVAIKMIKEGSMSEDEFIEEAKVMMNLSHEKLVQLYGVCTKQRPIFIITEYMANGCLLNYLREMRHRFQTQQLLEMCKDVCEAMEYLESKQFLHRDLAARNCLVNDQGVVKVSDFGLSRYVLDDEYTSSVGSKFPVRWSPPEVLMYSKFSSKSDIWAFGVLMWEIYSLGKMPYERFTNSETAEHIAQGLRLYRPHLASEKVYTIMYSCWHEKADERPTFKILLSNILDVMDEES

primary mouse B cells = experiment: B-cell response experiment (CD86 after anti-IgM); assay type: cell-based; conditions: 24 h treatment, 1–1000 nM
Description: Splenic cells from C57BL/6 mice were isolated by forcing spleen tissue through the mesh into PBS containing 2% fetal calf serum and 1 mM EDTA, and red blood cells were depleted by lysis buffer. […] Following a 24 h incubation, cells were stimulated with anti-IgM overnight (5 μg/mL, Sigma-Aldrich). […] Single-cell suspensions were analyzed by a flow cytometer (CytoFlex, Beckman Coulter).

BTK [2] = molecular target: T1, BTK; experiment: BTK activity in Mino cells (autophosphorylation); assay type: cell-based; parameters: We incubated Mino B cells with probes containing different tags; endogenous in cells; host or cells: Mino cells; conditions: Mino cells, 1 h; 100 nM probes, 1 μM ibrutinib or Ibr-H
Description: The cells were harvested, and immunoblots of phospho-BTK, total-BTK, and β-actin were performed.
Cell pellets were washed with ice-cold PBS and lysed using RIPA buffer (Sigma, R0278). […] Samples containing 50 μg of total protein were prepared with 4× LDS sample buffer (NuPAGE, Thermo Fischer Scientific, NP0007) and were then resolved on a 4–20% Bis-Tris gel (GeneScript SurePAGE, M00657). […] The EZ-ECL kit (Biological Industries, 20-500-1000) was used to detect HRP activity.
Target sequence in this assay (Q06187 whole entry): as above

Mino cells = experiment: Degradation proteomics (label-free quantitative proteomics); assay type: cell-based, human; conditions: 1n 500 nM, 24 h
Description: A total of 1 × 10^6 Mino cells were treated in four replicates with either 1n (500 nM) or DMSO (0.1%) for 24 h. Cells were then harvested and washed with ice cold PBS. Samples were then centrifuged at 200 rcf, 4 °C for 5 min; then the supernatant was removed and the samples were frozen at −80 °C. Samples were dispersed in 75 μL of 50 mM ammonium bicarbonate and transferred to 1.8 mL glass vials. A 75 μL amount of 10% SDS in 50 mM ammonium bicarbonate was added, and the samples were heated to 96 °C for 6 min. The samples were sonicated thoroughly in a sonication bath until the DNA was sheared, as indicated by reduction in viscosity to a level enabling easy pipettation. Total protein concentration was estimated using the BCA assay, and 30 μg from each sample was taken for LC/MS/MS analysis. The detailed procedure is available in the Supplementary Methods Section.
Trypsin/P with a maximum number of missed cleavages of 2. Oxidation of methionine and N-terminal acetylation were included as variable modifications. The “Re-quantify” option was enabled. Carbamidomethyl (C2H3NO) was used as a fixed modification on cysteine.
Contaminants were included. Peptides were searched with a minimum peptide length of 7 and a maximum peptide mass of 6500 Da. “Second peptides” was enabled, “Dependent peptides” were disabled and the option “Match between run” was enabled with a Match time window of 0.7 min and an alignment window of 20 min. An FDR of 0.01 was used for Protein FDR, PSM FDR and XPSM FDR. Proteins were identified and quantified based on the label-free quantification (LFQ) (REF: www.mcponline.org/content/13/9/2513.short) values reported by MaxQuant. Following MaxQuant analysis, proteins identified only through razor peptides or modified peptides, as well as common contaminants, were removed, and only proteins that gave at least 3 non-zero LFQ intensity values in at least one of the data sets were retained for analysis. Missing values were then replaced from a normal distribution.
Degradation proteomics experiment (label free quantitative proteomics)
Sample preparation: 106 Mino cells were treated in four replicates with either compound or DMSO for 24 hours. Cells were then washed twice by centrifuge at 200 rcf, 4°C for 5 minutes, removing the supernatant and washed with ice cold PBS. Samples were then centrifuged at 200 rcf, 4°C for 5 minutes, then supernatant was removed and samples were frozen at -80°C. Samples were dispersed in 75 μl of 50 mM ammonium bicarbonate, and transferred to 1.8 mL glass vials.
75 μl of 10% SDS in 50 mM ammonium bicarbonate were added and the samples were heated to 96°C for 6 minutes. The samples were sonicated thoroughly in a sonication bath until the DNA was sheared as indicated by reduction in viscosity to level enabling easy pipettation. Total protein concentration was estimated using BCA assay and 30 µg from each sample was taken for the […]
The samples were reduced by the addition of 1/20 volume of 100 mM DTT and heating to 60°C for 45 minutes. The samples were cooled to room temperature, and 1/20 volume of 200 mM iodoacetamide was added and the reaction was performed in the dark for 30 minutes.
At this point, 1/10 volume of 12% phosphoric acid was added, followed by 6 volumes of 90% methanol in 50 mM ammonium bicarbonate. The samples were loaded on S-trap Micro columns (Protify), and washed 3 times with 90% methanol in 50 mM ammonium bicarbonate. The columns were spun without washing to dry the methanol. […]

BTK [3] = molecular target: T1, BTK; experiment: Degradation of BTK by a CoLDR PROTAC in Mino cells; assay type: cell-based; parameters: We incubated Mino B cells with probes containing different tags; endogenous in cells; host or cells: Mino cells; conditions: for DC50: Mino cells, 24 h, Western blot
Target sequence in this assay (Q06187 whole entry): as above

BTK kinase domain = BTK kinase domain (Homo sapiens, UniProt Q06187); experiment: Labeling of recombinant BTK by intact protein LC/MS; assay type: binding; parameters: BTK kinase domain was expressed and purified as previously reported; made in house; conditions: BTK 2 μM, 2a 2 μM, 10 min, 25 °C, pH 8
BTK-1h = molecular target: T2, BTK-1h (Homo sapiens, UniProt Q06187); experiment: High-throughput screening with 1h-labeled BTK; assay type: binding
T2 construct: The BTK kinase domain was diluted to 2 μM in the buffer, and 2 μM 1h was added; made in house
Description: The collection was composed of BTK binding compounds obtained in our previous luminescence screen[37] (Data set S2). […] The resulting BTK-1h (50 μL) was added to the inhibitors.

Aurora A = test system: Aurora A; parameters: method as in selleck (supplier comment); conditions: ref selleck (supplier comment); cited from earlier work
BTK [4] = molecular target: T1, BTK; parameters: BTK kinase domain was expressed and purified as previously reported; made in house; method as in Reddi et al., J. Am. Chem. Soc. 2021, 143 (13), 4979–4992; conditions: ref Reddi et al., J. Am. Chem. Soc. 2021, 143 (13), 4979–4992; cited from earlier work
Target sequence in this assay (Q06187 402-655 limits assumed): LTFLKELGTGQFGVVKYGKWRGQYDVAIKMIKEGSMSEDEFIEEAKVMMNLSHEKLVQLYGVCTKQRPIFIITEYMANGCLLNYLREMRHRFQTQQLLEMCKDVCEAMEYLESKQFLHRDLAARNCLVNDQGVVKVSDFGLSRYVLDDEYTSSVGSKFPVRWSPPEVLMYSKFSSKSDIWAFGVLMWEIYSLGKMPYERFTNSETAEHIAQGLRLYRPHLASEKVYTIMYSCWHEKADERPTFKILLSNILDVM

[5] = molecular target: ubiquitin C-terminal hydrolase L3; parameters: method as in selleck (supplier comment); conditions: ref selleck (supplier comment); cited from earlier work
[6] = phosphate buffer pH 8, 37 °C, in 2 days
[7] = Dataset S2A, 200 μM compound, BTK-1h, 32 °C, 10 min

T2 sequence (Q06187 402-655): as the sequence (Q06187 402-655 limits assumed) above
Sequence of BTK kinase domain (Q06187 402-655 limits assumed): as above

time to complete reaction with GSH (GSH reactivity assay; 100 μM compound, 5 mM GSH, pH 8, 14 °C): ≤ 10 min | half-life at 100 μM (GSH reactivity assay; 100 μM compound): < 0.167 h | hydrolysis/elimination (Buffer stability assay; PBS buffer pH 8, 37 °C, in two days): 100% | elimination (Buffer stability assay; [6]): 50% | hydrolysis (Buffer stability assay; [6]): 50%
Structure (SMILES): C=C(CN1CCC[C@@H](n2nc(-c3ccc(Oc4ccccc4)cc3)c3c(N)ncnc32)C1)C(=O)OCC [1a]

half-life at 100 μM (GSH reactivity assay; 100 μM compound): > 100 h | less reactive toward GSH than ibrutinib (GSH reactivity assay; 5 mM GSH, pH 8): > 20 fold | labeling of BTK in live Mino cells (BTK [1]): labeled BTK with more selectivity
Structure (SMILES): C#CCCCCC(=O)NC1CCN(C(=O)C(=C)CN2CCC[C@@H](n3nc(-c4ccc(Oc5ccccc5)cc4)c4c(N)ncnc43)C2)CC1 [1d]

Ibr-H elimination (Buffer stability assay; phosphate buffer pH 8, 37 °C, after 4 days): 25%
Structure (SMILES): C=C(CN1CCC[C@@H](n2nc(-c3ccc(Oc4ccccc4)cc3)c3c(N)ncnc32)C1)C(=O)NCCN [1e]

labeling of BTK in live Mino cells (BTK [1]): labeled BTK at a concentration of 100 nM | time to robust labeling of BTK in cells (BTK [1]; Mino cells, 100 nM probe): 30 to 60 min | BTK autophosphorylation after anti-IgM (BTK [2]): did not affect the activity
Structure (SMILES): C=C(CN1CCC[C@@H](n2nc(-c3ccc(Oc4ccccc4)cc3)c3c(N)ncnc32)C1)C(=O)NCCNC(=O)CCC(=O)N1Cc2ccccc2C#Cc2ccccc21 [1f]
buffer stability (Buffer stability assay; phosphate buffer pH 8, 37 °C, 4 days): No further hydrolysis has been observed under these buffer conditions | B cell activation (CD86 expression) after anti-IgM (primary mouse B cells): did not inhibit the activation of B cells

water adduct formed (Buffer stability assay; PBS buffer pH 8, 37 °C): 15% | DC50 (BTK [3]; read-out: DC50): < 100 nM | DC50 (BTK [3]; read-out: DC50 according to the polynomial fit): 11.4 nM
Structure (SMILES): C=C(CN1CCC[C@@H](n2nc(-c3ccc(Oc4ccccc4)cc3)c3c(N)ncnc32)C1)C(=O)NCCOCCOCCOCCOCCNc1cccc2c1C(=O)N(C1CCC(=O)NC1=O)C2=O (some centres unmarked) [1n]
Log2(DMSO/treated) (Mino cells; BTK_HUMAN): 4.3089 | Log2(DMSO/treated) (Mino cells; EXOS4_HUMAN): 1.641 | Log2(DMSO/treated) (Mino cells; H14_HUMAN;H11_HUMAN;H1T_HUMAN): 1.44 | depletion of BTK (Mino cells; Mino cells): more than 16 fold | depletion of CSK (Mino cells; Mino cells): more than 50%

water adduct formed (Buffer stability assay; PBS buffer pH 8, 37 °C): 5%
Structure (SMILES): C=C(CN1CCC[C@@H](n2nc(-c3ccc(Oc4ccccc4)cc3)c3c(N)ncnc32)C1)C(=O)NCCOCCOCCOCCOCCC(=O)Nc1cccc2c1CN(C1CCC(=O)NC1=O)C2=O (some centres unmarked) [1p]

single labeling of target (BTK) (BTK kinase domain): 100%
Structure (SMILES): C#CCCNC(=O)C(=C)CN1CCC(CNc2ncnc(N)c2-c2ccc(Oc3ccccc3)cc2)CC1 [2a]

The remaining lines, values behind:

Structure (SMILES): Cc1cc(Nc2cc(N3CCN(C)CC3)nc(/C=C/c3ccccc3)n2)n[nH]1.O=C(O)C(O)C(O)C(=O)O [ENMD-2076 L-(+)-Tartaric acid]
FI (650)/FI (620) (BTK-1h; Dataset S2C, BTK-1h with inhibitor): 1.943 | selectivity for Aurora A over Aurora B (Aurora A): 25 fold

Structure (SMILES): Cc1cc(Nc2cc(N3CCN(C)CC3)nc(/C=C/c3ccccc3)n2)n[nH]1 [PCM-0095056-003, ENMD-2076]
IC50 (Aurora A): 14 nM | BTK Inhibition reported in luminescence assay* (BTK [4]): 91

Structure (SMILES): O=C1CC(=O)c2c(Cl)c(Cl)c(Cl)c(Cl)c21 [PCM-0215201-001, TCID]
FI (650)/FI (620) (BTK-1h; [7]): 25.7359 | FI (BTK-1h)/FI (BTK-1h+Inhibitor) at 620 nm (BTK-1h; [7]): 0.9352 | FI (BTK-1h)/FI (BTK-1h+Inhibitor) at 620 nm (BTK-1h; Dataset S2B, 200 μM inhibitor added to BTK-1h (2 μm)): 25.7359 | IC50 [5]: 600 nM | selectivity to L1 [5]: 125 fold | BTK Inhibition reported in luminescence assay* (BTK [4]): 79.5

Structure (SMILES): CC(=O)O[C@@H]1CC[C@@]2(C)[C@@H](CC[C@]3(C)[C@@H]2C(=O)C=C2[C@@H]4[C@@H](C)[C@H](C)CC[C@]4(C)CC[C@]23C)[C@@]1(C)C(=O)O [PCM-0216599-001]
FI (650)/FI (620) (BTK-1h; [7]): 0.9109 | FI (BTK-1h)/FI (BTK-1h+Inhibitor) at 620 nm (BTK-1h; [7]): 1.037 | BTK Inhibition reported in luminescence assay* (BTK [4]): 88

Structure (SMILES): Cc1c[nH]c(/C=C2\C(=O)Nc3ccccc32)c1CCC(=O)O [PCM-0216652-001]
FI (650)/FI (620) (BTK-1h; [7]): 1.505 | FI (BTK-1h)/FI (BTK-1h+Inhibitor) at 620 nm (BTK-1h; [7]): 1.061 | BTK Inhibition reported in luminescence assay* (BTK [4]): 83.4

Structure (SMILES): COc1ccc2[nH]cc(/C=C3\C(=O)Nc4ccc(NC(=O)CCN5CCCCC5)cc43)c2c1 [PCM-0216653-001]
FI (650)/FI (620) (BTK-1h; [7]): 1.609 | FI (BTK-1h)/FI (BTK-1h+Inhibitor) at 620 nm (BTK-1h; [7]): 0.9946 | BTK Inhibition reported in luminescence assay* (BTK [4]): 51.7

Structure (SMILES): O=C1CCC(N2C(=O)c3cccc(O)c3C2=O)C(=O)N1 (centres unmarked) [thalidomide-OH]
rescue of 1n-induced BTK degradation (BTK [3]; Mino cells pretreated 2 h before PROTAC 24 h): able to rescue the degradation
